Reference: ChEMBL document CHEMBL1201862, “PubChem BioAssay data set” (2004)
Calls of active or inactive are those of the source.

Columns and labels:
[1] = biological target: Heat shock protein HSP 90-alpha (Homo sapiens, UniProt P07900); assay type: functional, organism-based
[2] = biological target: T1, Endoribonuclease toxin MazF (Escherichia coli K-12, UniProt P0AE70); test: substrate-only fluorescence increase artefacts – biochemical, single-stranded RNase substrate, counter-screen for MazEF activator project, dose response (AID 588502); assay type: functional
T1 sequence (P0AE70 whole entry): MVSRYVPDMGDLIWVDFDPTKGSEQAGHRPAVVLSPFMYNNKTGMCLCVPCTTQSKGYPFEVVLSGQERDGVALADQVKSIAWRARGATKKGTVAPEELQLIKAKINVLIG

[3] = biological target: T1, Endoribonuclease toxin MazF; test: activation of MazEF endoribonuclease cleavage – biochemical, fluorescence, single-stranded RNA substrate, uHTS hits, dose response (AID 588481); assay type: functional
[4] = microbe, parasite or virus in culture; assay type: functional; conditions: Mycobacterium tuberculosis
cells [5] = assay type: functional, cell-based
cells [6] = assay type: functional
[7] = Vero E6 cell cytotoxicity, dose response, cytotoxicity control for non-replicating M. tuberculosis project, secondary assay (AID 492998); assay type: functional, VeroE6; conditions: Vero C1008
[8] = THP-1 cell cytotoxicity, dose response, cytotoxicity control for non-replicating M. tuberculosis project (AID 489025); assay type: functional
cells [9] = assay type: functional, cell-based; remark: listed apart in the source
[10] = biological target: T2, Long-chain-fatty-acid--AMP ligase FadD28 (Mycobacterium tuberculosis, UniProt P9WQ59); test: Fluorescence polarization aasay to screen for inhibitors that compete for the binding of FadD28 to a bisubstrate Measured in Biochemical System Using Plate Reader - 2147-01_Inhibitor_Dose_CherryPick_Activity.; assay type: functional, Mycobacterium tuberculosis H37Rv
T2 sequence (P9WQ59 whole entry): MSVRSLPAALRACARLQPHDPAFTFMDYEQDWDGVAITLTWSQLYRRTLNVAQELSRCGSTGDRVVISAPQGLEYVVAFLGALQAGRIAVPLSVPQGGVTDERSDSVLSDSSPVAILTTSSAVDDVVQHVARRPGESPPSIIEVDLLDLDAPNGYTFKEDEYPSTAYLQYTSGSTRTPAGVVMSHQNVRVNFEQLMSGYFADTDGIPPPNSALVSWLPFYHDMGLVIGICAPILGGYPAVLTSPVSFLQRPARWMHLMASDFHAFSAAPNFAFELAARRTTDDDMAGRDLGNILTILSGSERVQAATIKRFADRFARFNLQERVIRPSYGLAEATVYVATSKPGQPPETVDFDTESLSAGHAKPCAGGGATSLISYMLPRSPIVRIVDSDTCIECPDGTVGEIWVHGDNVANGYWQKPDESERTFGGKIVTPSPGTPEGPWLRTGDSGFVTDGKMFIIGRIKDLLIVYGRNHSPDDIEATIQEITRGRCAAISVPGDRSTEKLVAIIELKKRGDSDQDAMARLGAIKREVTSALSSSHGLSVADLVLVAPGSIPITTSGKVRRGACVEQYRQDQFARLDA

Cytochrome P450 3A4 = Cytochrome P450 3A4 (Homo sapiens, UniProt P08684); conditions: Potency;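 also: confirmatory qHTS run detecting inhibitors and substrates of CYP3A4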
Chain of Cytochrome P450 3A4 (P08684 whole entry): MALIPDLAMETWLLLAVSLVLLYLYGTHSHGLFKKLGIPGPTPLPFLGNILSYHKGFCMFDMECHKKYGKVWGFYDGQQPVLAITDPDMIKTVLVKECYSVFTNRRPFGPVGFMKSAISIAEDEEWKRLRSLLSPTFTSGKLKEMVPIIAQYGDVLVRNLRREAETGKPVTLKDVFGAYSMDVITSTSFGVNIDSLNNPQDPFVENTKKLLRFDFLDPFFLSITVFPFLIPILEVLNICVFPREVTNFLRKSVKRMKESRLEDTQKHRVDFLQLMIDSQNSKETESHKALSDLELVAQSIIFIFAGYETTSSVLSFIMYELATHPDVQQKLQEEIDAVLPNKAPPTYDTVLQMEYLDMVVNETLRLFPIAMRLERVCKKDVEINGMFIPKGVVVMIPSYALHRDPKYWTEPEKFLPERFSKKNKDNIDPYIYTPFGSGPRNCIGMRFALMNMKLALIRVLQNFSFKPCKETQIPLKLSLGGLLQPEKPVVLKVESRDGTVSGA

[11] = biological target: T3, Polyadenylate-binding protein 1 (Homo sapiens, UniProt P11940); test: MLLE binding blockers, Cy5 peptide tracer – biochemical, fluorescence polarization, Cy5-PAM2 peptide, secondary, miRNA deadenylation inhibitor project, dose response (AID 602260); assay type: functional; conditions: read-out: IC50_Mean
T3 sequence (P11940 whole entry, the tested form may be a part): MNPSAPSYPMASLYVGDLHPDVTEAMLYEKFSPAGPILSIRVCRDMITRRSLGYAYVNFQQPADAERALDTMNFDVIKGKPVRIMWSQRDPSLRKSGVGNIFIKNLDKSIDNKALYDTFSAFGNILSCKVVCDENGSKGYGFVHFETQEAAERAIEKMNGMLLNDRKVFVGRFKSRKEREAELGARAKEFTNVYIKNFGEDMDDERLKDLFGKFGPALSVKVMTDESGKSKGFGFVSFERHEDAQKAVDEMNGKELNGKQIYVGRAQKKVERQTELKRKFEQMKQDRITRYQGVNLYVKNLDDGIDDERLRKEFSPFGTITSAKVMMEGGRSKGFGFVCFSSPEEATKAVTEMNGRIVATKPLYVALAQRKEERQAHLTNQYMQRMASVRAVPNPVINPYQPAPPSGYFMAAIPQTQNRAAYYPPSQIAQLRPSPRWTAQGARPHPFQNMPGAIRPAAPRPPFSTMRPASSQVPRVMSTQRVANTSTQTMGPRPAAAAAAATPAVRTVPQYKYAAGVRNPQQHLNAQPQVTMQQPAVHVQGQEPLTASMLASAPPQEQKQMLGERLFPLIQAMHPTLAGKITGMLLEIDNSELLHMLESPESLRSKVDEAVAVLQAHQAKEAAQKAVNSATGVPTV

[12] = biological target: T3, Polyadenylate-binding protein 1; test: MLLE domain peptide-binding blockers, IC50 – biochemical, fluorescence polarization, FITC-PAM2 peptide, dose response (AID 602259); assay type: functional; conditions: read-out: IC50_Mean
[13] = luciferase reporter signal suppression in cells – H4 neuroglioma cells, luminescence, dose response (AID 1990); assay type: functional, cell-based
[14] = alpha-synuclein stem-loop luciferase translation blockers – H4 neuroglioma cells, luminescence, confirmation (AID 1988); assay type: functional, cell-based
[15] = Luminescence Cell-Based Dose Response HTS to Identify Inhibitors of 5'UTR Stem-Loop Driven Prion Protein mRNA Translation in H4 Neuroglioblastoma Cells. [Related pubchem assays: 1827 (Project Summary), 1813 (Primary HTS)]; assay type: functional
[16] = Trypanosoma cruzi growth suppression in host cells – NIH3T3 host cells, beta-gal luminescence, confirmation (AID 2044); assay type: functional, cell-based;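 also: intracellular parasites grown in NIH/3T3 mouse fibroblasts as host cells; luminescent beta-galactosidase reporter signal from transgenic T. cruzi replicating inside host cells; inhibitors lower the luminescence signal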
[17] = NIH3T3 cell viability loss – ATP luminescence, mouse fibroblasts, counter-screen, dose response (AID 2010); assay type: functional, cell-based;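 also: cells exposed to compound for about 90 hours before reading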
[18] = HEK-293T viability loss after treatment – luminescence, T-cell screen hits, cytotoxicity control for TCR NF-kB inhibitor project, dose response (AID 489026); assay type: functional, cell-based;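 also: cells exposed to compound about 14 hours before the viability readout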
Protein RecA = biological target: T4, Protein RecA (Mycobacterium tuberculosis, UniProt P9WHJ3); test: Fluorescence Cell-Free Homogeneous Dose Retest to Identify Inhibitors of RecA-Intein Splicing Activity. [Related pubchem assays (depositor defined):AID2097, AID2223, AID489010, AID492950]; assay type: functional
T4 sequence (P9WHJ3 whole entry): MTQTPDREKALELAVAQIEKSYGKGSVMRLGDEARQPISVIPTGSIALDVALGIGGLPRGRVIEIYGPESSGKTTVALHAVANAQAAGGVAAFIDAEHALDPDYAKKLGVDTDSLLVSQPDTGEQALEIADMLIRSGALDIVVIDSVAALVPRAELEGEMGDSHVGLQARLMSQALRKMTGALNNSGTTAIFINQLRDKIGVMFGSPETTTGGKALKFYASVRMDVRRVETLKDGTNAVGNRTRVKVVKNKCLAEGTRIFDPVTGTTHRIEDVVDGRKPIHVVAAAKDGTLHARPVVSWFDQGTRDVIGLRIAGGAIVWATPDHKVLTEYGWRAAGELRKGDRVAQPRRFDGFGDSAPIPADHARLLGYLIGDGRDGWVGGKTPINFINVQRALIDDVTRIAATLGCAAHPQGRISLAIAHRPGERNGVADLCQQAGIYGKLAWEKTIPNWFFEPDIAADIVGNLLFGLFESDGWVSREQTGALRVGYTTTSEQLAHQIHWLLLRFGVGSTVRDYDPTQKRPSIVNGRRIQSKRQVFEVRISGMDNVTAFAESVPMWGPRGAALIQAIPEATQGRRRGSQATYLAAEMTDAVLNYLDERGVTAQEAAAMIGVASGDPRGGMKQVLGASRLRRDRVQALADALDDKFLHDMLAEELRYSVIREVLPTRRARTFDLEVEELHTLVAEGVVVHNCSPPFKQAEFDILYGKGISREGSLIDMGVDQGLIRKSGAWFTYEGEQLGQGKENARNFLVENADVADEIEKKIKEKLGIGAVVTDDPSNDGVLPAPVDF

[19] = biological target: T5, Replicative DNA helicase DnaB (Mycobacterium tuberculosis, UniProt P9WMR3); test: DnaB intein splicing inhibitors, dose response, biochemical, cell-free fluorescence (AID 449749); assay type: functional
T5 sequence (P9WMR3 whole entry): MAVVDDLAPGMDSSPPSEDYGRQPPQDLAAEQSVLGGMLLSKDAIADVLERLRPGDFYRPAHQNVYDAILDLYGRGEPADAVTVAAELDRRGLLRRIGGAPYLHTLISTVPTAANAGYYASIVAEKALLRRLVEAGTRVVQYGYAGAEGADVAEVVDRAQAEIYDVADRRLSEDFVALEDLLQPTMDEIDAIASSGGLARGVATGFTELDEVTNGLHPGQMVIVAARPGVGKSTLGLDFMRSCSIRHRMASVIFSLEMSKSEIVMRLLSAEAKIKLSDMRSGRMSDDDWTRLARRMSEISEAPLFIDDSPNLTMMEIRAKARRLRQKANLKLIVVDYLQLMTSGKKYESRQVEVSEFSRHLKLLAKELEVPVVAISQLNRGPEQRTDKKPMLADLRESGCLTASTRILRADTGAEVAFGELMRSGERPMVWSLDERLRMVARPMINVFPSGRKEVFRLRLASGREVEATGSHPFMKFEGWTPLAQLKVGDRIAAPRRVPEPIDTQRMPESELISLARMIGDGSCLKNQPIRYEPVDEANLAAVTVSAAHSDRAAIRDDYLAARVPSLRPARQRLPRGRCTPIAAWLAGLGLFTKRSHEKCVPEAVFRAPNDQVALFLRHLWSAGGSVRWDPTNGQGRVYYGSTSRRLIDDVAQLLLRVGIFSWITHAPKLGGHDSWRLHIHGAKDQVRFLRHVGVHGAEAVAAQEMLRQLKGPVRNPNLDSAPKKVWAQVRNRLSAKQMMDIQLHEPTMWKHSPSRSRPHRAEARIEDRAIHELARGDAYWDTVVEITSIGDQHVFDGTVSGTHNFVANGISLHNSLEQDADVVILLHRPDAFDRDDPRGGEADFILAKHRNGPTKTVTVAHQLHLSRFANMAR

H9c2 = test: cells; assay type: functional, cell-based; conditions: Rattus norvegicus, H9c2, Myocardium;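 also: confirmatory concentration-response retest of ultra-high-throughput screening hits for modulation of myocardial damage; cell death induced by hydrogen peroxide oxidative stress; compound pretreatment for 60 min then peroxide exposure for 2 h; potency is for protecting the cells against peroxide damage rather than for killing them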
[20] = P. falciparum Dd2 growth inhibitors, dose response, SYBR Green, cherry-picked samples (AID 1159567); assay type: functional, cell-based

For `O=c1c(-c2ccccc2)c(-c2ccccc2)oc2cc(O)cc(O)c12`, the AC50 [1] was 7.78 µM (active).

With `Cc1sc(NC(=O)COc2cccc(-n3cnnn3)c2)c(C#N)c1C` the EC50 [2] was > 99 µM (inactive) and the EC50 [3] was > 99 µM (inactive).

With `Cc1cc(C)nc(Sc2ncnc(N)c2[N+](=O)[O-])n1` the CC50 [4] was 26.3 µM (active), the EC50 (cells [5]) was > 350 µM (not active) and the IC50 (cells [6]) was 11.7 µM (active). For the same compound, the CC50 [7] was 17.8 µM (active), the CC50 [8] was 23.8 µM (active) and the EC50 (cells [9]) was > 350 µM (not active).

In the case of `COc1ccc(NC(=O)CNc2ccccc2N2CCCC2=O)cc1S(=O)(=O)N1CCOCC1`, the AC50 [10] is reported as 34.1 µM (active).

For `COC(=O)c1cccc(C23CC4(C2)[C@H](CN(Cc2ccc(-c5ccccc5)cc2)[C@@H]4c2ccccc2)C3c2ccc(C(F)(F)F)cc2)c1` (stereo not given in full), the AC50 (Cytochrome P450 3A4) was 20 µM (inconclusive).

For `COc1ccc2nc3cc(Cl)ccc3c(C#N)c2c1`, the IC50 [11] was > 66 µM (inactive), the EC50 [2] was > 99 µM (inactive) and the EC50 [3] was > 99 µM (inactive). The IC50 [12] was > 66 µM (inactive).

For `COc1cc(OC)cc(N2C(=O)CC(N3CCC(C(=O)N4CCCCC4)CC3)C2=O)c1` (stereo not given), the AC50 [1] was 8.16 µM (active).

For `CC1CN(c2ccc([N+](=O)[O-])c(NCCOc3ccc(Cl)cc3)c2)CC(C)N1` (stereo not given), the CC50 [4] was 11.7 µM (active), the EC50 [13] was > 120 µM (not active) and the EC50 [14] was 9.59 µM (active). The EC50 [15] was 13.6 µM (active).

For `CCOC(=O)CSc1nc2cc(C)ccc2cc1C#N`, the EC50 [2] was 26.8 µM (inactive) and the EC50 [3] was > 99 µM (inactive).

With `Nc1c(C(=O)c2ccc(Cl)cc2)sc2nc3c(cc12)CCC3` the EC50 [2] was > 99 µM (inactive) and the EC50 [3] was > 99 µM (inactive).

For `Cc1cccc(NC(=O)c2ccc([N+](=O)[O-])s2)n1`, the IC50 (cells [6]) was 11.8 µM (active), the CC50 [7] was 19.1 µM (active) and the EC50 [16] was 0.325 µM (active). For the same compound, the EC50 [17] was > 60 µM (not active) and the CC50 [8] was 29.9 µM (active).

For `CCCCC(CC)COP(=O)(OCC(CC)CCCC)OCC(CC)CCCC` (stereo not given), the AC50 (Cytochrome P450 3A4) was 15.8 µM (inconclusive).

In the case of `C=CCOC(=O)C(C(C)=O)C(NC(=O)OC)c1ccco1` (stereo not given), the AC50 (Cytochrome P450 3A4) is reported as 5.01 µM (inconclusive).

With `COC(=O)[C@@H]1C[C@@H]2CC[C@@H](O)C[C@@H]2N1Cc1ccc(C)s1` the AC50 (Cytochrome P450 3A4) was 25.1 µM (inconclusive).

In the case of `Nc1ncnc2c1ncn2[C@@H]1O[C@H](CNCc2ccc(OCc3ccccc3)cc2)[C@@H](O)[C@H]1O`, the AC50 [10] is reported as 64.2 µM (active).

For `COc1cccc(NC(=O)CN(C)C(=O)c2cc3c(s2)CCCCC3)c1`, the AC50 [10] was 84 µM (active).

With `COc1cc(C2c3cc4c(cc3CC3COC(=O)C32)OCO4)cc(OC)c1OC` (stereo not given) the IC50 [18] was > 80 µM (inactive).

In the case of `Cc1ccc2c(c1)C(=O)C(=O)N2Cc1ccc(C(F)(F)F)cc1`, the AC50 [1] is reported as 7.94 µM (active).

In the case of `Cc1[nH]n(-c2ccccc2)c(=O)c1C(C[N+](=O)[O-])c1ccccc1Cl` (stereo not given), the CC50 [4] is reported as > 40 µM (active), the EC50 (Protein RecA) is reported as 5.48 µM (active) and the AC50 [19] is reported as 6.69 µM (active).

For `Cc1cccc(-n2[nH]c(C)c(/C=N/c3ccc4[nH]c(O)nc4c3)c2=O)c1`, the EC50 [2] was 65.2 µM (inactive), the EC50 [3] was 36 µM (inactive) and the IC50 (H9c2) was > 79 µM (inactive).

In the case of `C[C@H](CO)N1C[C@H](C)[C@H](CN(C)Cc2ccc(Oc3ccccc3)cc2)Oc2c(NC(=O)c3nc4ccccc4s3)cccc2C1=O`, the AC50 [20] is reported as 4.87 µM (active).

In the case of `COCC(=O)N1CC2(C1)CN(Cc1cc(F)ccc1F)[C@H](CO)c1[nH]c3cc(OC)ccc3c12`, the AC50 [20] is reported as 13.6 µM (active).

For `COC(=O)c1c(C)c2c(c(C)c1O)OC(=O)c1c(C)c(Cl)c(O)c(Cl)c1O2` [LEOIDIN], the AC50 (Cytochrome P450 3A4) was 2.51 µM (inconclusive).
